From US8394785B2, “Methods for the treatment and amelioration of urticaria” (Jado Technologies GmbH, priority 2005, dated 2013) come the findings set out here.

In test [1] the test system is C57 mouse mast cell line transfected with the alpha chain of the human high affinity IgE receptor. Kind of test: Histamine release assay, anti-human-IgE induced, C57 cells. The conditions noted are these: anti-human-IgE stimulation; 60 min pre-incubation. The class given is cell-based. How it is done: Stock solution of miltefosine (5 mM) was prepared in DMSO and stored at −20° C. For preparation of the working concentration (2 mM), the stock solution was diluted with PAG-CM (PAG-CM=PIPES Albumin Glucose with Calcium und Magnesium). All other dilutions of miltefosine were prepared with 40% DMSO in PAG-CM buffer. The quantification of histamine levels was achieved using an automated histamine-analyser system (Firm Borgwelt Technik). The wavelength of the excitation was 355-360 nm and the emission wavelength of fluorescence measurement was 450-460 nm. The intensity of fluorescence was directly proportional to the concentration of histamine in the samples. The amount of released histamine was calculated according to the following formula: net histamine release=(release−blank)×(100/complete). “Release”, in this context, was defined as the supernatant of stimulated cells, e.g. by anti-IgE, whereas supernatants of non stimulated cells, i.e. spontaneous release, was termed “blank”. “Complete” stands for the total histamine content of mast cells (after lysing with perchloric acid). The histamine release assays were performed in the PAG-CM buffer system. The numbers of mast cells or basophils in each sample used for histamine release assays was approximately 1×10^4 cells. For stimulation, cells were exposed to anti-IgE, Substance P, Ca-ionophore, or C5a. […]

A further test concerns human basophils. The experiment in a line: Histamine release assay, C5a induced, human basophils. The class given is cell-based. As for the experimental part: Human basophils were isolated from whole blood using ficoll paque (D=1.077). Briefly, heparinized whole blood was diluted 1:3 with PBS (w/o Ca and Mg), layered on the ficoll paque solution, and centrifuged for 30 min at 400×g. Low-density particles such as lymphocytes, monocytes, basophils, and platelets were recovered from the interface between the plasma and ficoll solution. The cell suspension from the interface was centrifuged twice at 200×g for 10 min for removal of thrombocytes from the basophil fraction. The number of basophils in the cell suspension was determined by Toluidin blue staining. The yield of basophils was approximately 2%. These pre-purified basophils were used for the histamine release assay. For the cytokine release assays, basophils were further purified using the “Basophil Isolation Kit” for depletion of non-basophils from the interface cell suspension. […] The quantification of histamine levels was achieved using an automated histamine-analyser system (Firm Borgwelt Technik). The wavelength of the excitation was 355-360 nm and the emission wavelength of fluorescence measurement was 450-460 nm. The intensity of fluorescence was directly proportional to the concentration of histamine in the samples. The amount of released histamine was calculated according to the following formula: net histamine release=(release−blank)×(100/complete). […]

With `CCCCCCCCCCCCCCCCOP(=O)([O-])OCC[N+](C)(C)C` [Compound 3, 1-hexadecylphosphoryl-choline], the “maximal inhibition of histamine release” value in test [1] was found to be 40%. The compound also showed an inhibition at 25 µM in the test on human basophils of 75%.
